Data published in paper PMC10839966, “Identification and evaluation of small-molecule inhibitors against the dNTPase SAMHD1 via a comprehensive screening funnel” (iScience, 2024).
“Also recorded” adds a separate entry of the source. Read-outs that look alike come from different tables or passages of the source.

Assays:
SAMHD1^Y146S/Y154S = test system: T1, SAMHD1^Y146S/Y154S; experiment: CETSA using lysates of SAMHD1−/− THP-1 cells with rescue expression of dimerization-defective variant; type: binding, Human; details: versus DMSO, full melt curves, 100 μM
T1 construct: expressed in transfected cells; host or cells: SAMHD1-/- THP-1 cell clone

[1] = test system: T2, wild-type SAMHD1 in THP-1 cell lysates; experiment: CETSA using THP-1 cell lysates, wild-type SAMHD1; type: binding, Human
T2 construct: lysate from THP-1 cells expressing endogenous wild-type SAMHD1; endogenous in cells; host or cells: THP-1
Method: (§1) Samples were subsequently rested at RT for 3 min, supplemented with 40 μL sample buffer (50 mM HEPES pH 7.5, 5 mM β-glycerophosphate, 0.1 mM Na3VO4, 10 mM MgCl2, 2 mM TCEP, 1X cOmplete, Mini, EDTA-free protease inhibitor cocktail), and then lysed through three freeze-thaw cycles with alternating ethanol/dry ice and 37°C water bath. Finally, lysates were clarified by centrifugation at 17,000g for 20 min and then analysed by Western blot. […] Following heating, samples were rested at RT for 3 min, clarified by centrifugation, and finally analysed by Western blot. Protein band intensities were normalised to that of the thermally stable loading control SOD-1, and were curve-fitted via a Boltzmann sigmoidal model (GraphPad Prism) to determine Tagg.

recombinant SAMHD1 [2] = target: T3, recombinant SAMHD1 (Homo sapiens, UniProt Q9Y3Z3); experiment: B4NPP direct SAMHD1 enzymatic assay; type: biochemical; details: for Inhibition of SAMHD1 activity against B4NPP (in words): 2 mM B4NPP
T3 construct: His-tag (N); made in house; host or cells: E. coli BL21 (DE3)

recombinant SAMHD1 [3] = target: T3, recombinant SAMHD1; experiment: Enzyme-coupled malachite green assay, SAMHD1 in vitro activity (dGTP, ara-CTP, Cl-F-ara-ATP substrates); type: biochemical
recombinant SAMHD1 [4] = target: T3, recombinant SAMHD1; experiment: In vitro chemical crosslinking (glutaraldehyde), SAMHD1 multimers; details: 1.875 mM glutaraldehyde, GTP 0-5 mM
[5] = test system: recombinant MTH1, dCTPase, dUTPase, ITPase, NUDT5, NUDT12, NUDT15 and NUDT22; experiment: Compound selectivity, enzyme-coupled MG assays against panel of nucleoside pyro-/tri-phosphatases; type: biochemical, human; details: assayed up to 100 μM
recombinant SAMHD1 [6] = target: T3, recombinant SAMHD1; experiment: Dynamic light scattering (DLS), SAMHD1 particle size; details: 1 mM compound, 1 mM GTP
Method: SAMHD1 particle size distribution was determined using a Malvern ZETASIZER (Ultra) (Malvern Instruments). […] Raw intensity-weighted data were converted to volume distribution by built-in algorithms to mitigate the impact of aggregated protein species.

[7] = test system: T4, cellular SAMHD1 in THP-1 cell lysate; experiment: Drug affinity responsive target stability (DARTS) on THP-1 cell lysates; type: binding, Human; details: 100 μM compound or 5 mM dGTP
T4 construct: lysate from THP-1 cells expressing endogenous wild-type SAMHD1; endogenous in cells; host or cells: THP-1
Method: Lysates were then clarified by centrifugation at 16000 x g for 10 min at 4°C. Protein concentrations of the clarified lysates were subsequently determined by Pierce™ Coomassie plus (Bradford) assay reagent (Thermo Scientific), and samples were diluted in 1x TN buffer (50 mM Tris-HCl pH 8.0, 50 mM NaCl) to a total protein concentration of 1 mg/mL. […] Digestion was stopped by the addition of 4x Laemmli sample buffer (Bio-Rad) supplemented with 100 mM DTT and heating at 95°C for 5 min.

recombinant SAMHD1 [8] = target: T3, recombinant SAMHD1; experiment: Differential scanning fluorometry (DSF); type: binding; details: for Effect on SAMHD1 thermal stability / Tm1: absence of nucleotides, up to 200 μM (0.2–[…]); for Effect on GTP-induced SAMHD1 dimerization (Tm1 transition): order-of-addition, 0.1 mM TH6342, 0.5 mM TH7127 pre-incubated before low GTP, TH7126 before or after GTP
Method: The assay mixture was then subject to a 20-85/90°C temperature gradient for 20 min, with the fluorescence intensities (RFU) measured every second using a LightCycler 480 Instrument II (Roche Life Science). […] Melting temperatures (Tm) were identified by the minima of the negative first derivative (-dRFU/dT) of fluorescence intensity (LightCycler 480 Software).

recombinant SAMHD1 [9] = target: T3, recombinant SAMHD1; experiment: Kinetic study, enzyme-coupled MG assay with matrix of inhibitors and dGTP; type: biochemical; details: inhibitor 0.03-20 μM added before dGTP 6.25-200 μM
Method: The reactions are performed on 384-well plates with a final volume of 20 μl and DMSO level controlled at 1%, where all reagents are dispensed using a D300e Digital Dispenser (Tecan). […] Following 20 min incubation at RT, the reaction was then quenched by EDTA, Subsequently, the malachite green reagent was added at 10 μl/well, and upon incubation at RT for 20 min, [MUT] was read in a Hidex Sense microplate reader. Standard curves of inorganic sodium phosphate were constructed to determine amount of phosphate released, and subsequently used to determine reaction kinetics (GraphPad Prism).

[10] = test system: T5, cellular SAMHD1 in intact THP-1 cells; experiment: CETSA using intact THP-1 cells; type: cell-based, Human; details: 100 μM inhibitors or 10 mM thymidine, 2 h; isothermal at 53°C for inhibitors
T5 construct: lysate from THP-1 cells expressing endogenous wild-type SAMHD1; endogenous in cells; host or cells: THP-1
Method: as §1

[11] = substrate Cl-F-ara-ATP 50 μM with GTP 12.5 μM as activator, read-out: IC50 (μM) Cl-F-ara-ATP
[12] = substrate ara-CTP 200 μM with dGTPαS 3.125 μM as activator, read-out: IC50 (μM) araCTP
[13] = substrate dGTP 25 μM, read-out: IC50 (μM) dGTP

T3 sequence (Q9Y3Z3 whole entry): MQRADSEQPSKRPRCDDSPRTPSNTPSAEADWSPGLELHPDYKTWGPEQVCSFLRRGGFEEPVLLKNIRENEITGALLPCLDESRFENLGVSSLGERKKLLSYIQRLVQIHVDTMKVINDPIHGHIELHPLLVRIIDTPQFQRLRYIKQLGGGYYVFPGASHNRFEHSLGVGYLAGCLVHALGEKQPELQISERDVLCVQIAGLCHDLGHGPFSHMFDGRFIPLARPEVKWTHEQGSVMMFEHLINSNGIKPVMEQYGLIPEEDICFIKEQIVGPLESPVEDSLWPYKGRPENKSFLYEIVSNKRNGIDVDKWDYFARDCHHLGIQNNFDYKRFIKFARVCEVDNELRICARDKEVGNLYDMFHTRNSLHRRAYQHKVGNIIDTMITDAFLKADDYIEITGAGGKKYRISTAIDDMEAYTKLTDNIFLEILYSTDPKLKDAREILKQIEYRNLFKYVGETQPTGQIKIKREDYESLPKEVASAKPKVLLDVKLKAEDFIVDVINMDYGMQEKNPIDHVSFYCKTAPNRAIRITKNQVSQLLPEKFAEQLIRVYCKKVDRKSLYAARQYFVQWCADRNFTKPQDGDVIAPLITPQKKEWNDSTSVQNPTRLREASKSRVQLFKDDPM

Structure (SMILES) | Inhibition of SAMHD1 activity against B4NPP (in words) (recombinant SAMHD1 [2]; Mn2+) | IC50 (recombinant SAMHD1 [3]; [11]) [µM] | IC50 (recombinant SAMHD1 [3]; [12]) [µM] | IC50 (recombinant SAMHD1 [3]; [13]) [µM] | Selectivity for SAMHD1 versus panel of nucleotide phosphatases [5] | SAMHD1 stability to pronase treatment [7] | Effect on SAMHD1 thermal stability / Tm1 (recombinant SAMHD1 [8]) | Effect on GTP-induced SAMHD1 dimerization (Tm1 transition) (recombinant SAMHD1 [8]) | Effect on reaction kinetics / Hill coefficient (Hn) (recombinant SAMHD1 [9]) | other results
Clc1ccccc1-c1cn2ccnc2c(NCCc2ccccn2)n1 [TH6342, 6-(2-chlorophenyl)-N-(2-(pyridin-2-yl)ethyl)imidazo[1,2-a]pyrazin-8-amine] | retained their inhibitory activities | 5.8 | 11 | 9.1 | selectively inhibited SAMHD1 | Neither TH6342 nor TH7127 in cell lysates altered SAMHD1 stability to pronase treatment | small concentration-dependent reduction in Tm1 | the allosteric activator was not able to fully remove the Tm1 transition | significantly increased hill coefficients | Increase of aggregation temperature (Tagg) (SAMHD1^Y146S/Y154S): ~1 °C; Aggregation temperature (Tagg) ± SE (°C) ([1]; Figure 7F, SAMHD1 Tagg summary, wild-type SAMHD1 lysate, 100 μM compound, DMSO 44.8 ± 0.6): 46.1 ± 0.4 °C; Effect on GTP-induced SAMHD1 multimerization (crosslinking) (recombinant SAMHD1 [4]): deterred GTP-induced SAMHD1 multimerization; Effect on GTP-induced SAMHD1 dimerization (DLS) (recombinant SAMHD1 [6]): deterred GTP (1 mM)-induced SAMHD1 dimerization; Effect on thermal stability of nucleotide-bound SAMHD1 (recombinant SAMHD1 [8]; 0.5 mM compound added after GTP at 5 mM or dGTPαS at 1 mM): mildly destabilized GTP-bound, but not dGTPαS-bound, SAMHD1 species
Cc1cn([C@H]2C[C@H](O)[C@@H](CO)O2)c(=O)[nH]c1=O [thymidine, Thymidine] |  |  |  |  |  |  |  |  |  | SAMHD1 stabilization against heat, intact cells [10]: substantially stabilized SAMHD1
Nc1nc2c(ncn2[C@H]2C[C@H](O)[C@@H](COP(=O)(O)OP(=O)(O)OP(=O)(O)O)O2)c(=O)[nH]1 [dGTP, reference compound] |  |  |  |  |  | substantially stabilized SAMHD1 |  |  |  | SAMHD1 stabilization against heat, cell lysate ([1]; 100 μM inhibitors or 5 mM dGTP, isothermal at 45°C for inhibitors): substantially stabilized SAMHD1
COc1ccccc1-c1cn2ccnc2c(NCCc2ccccn2)n1 [TH7127, 6-(2-methoxyphenyl)-N-(2-(pyridin-2-yl)ethyl)imidazo[1,2-a]pyrazin-8-amine] | retained their inhibitory activities | 4 | 4.5 | 4.9 | selectively inhibited SAMHD1 | Neither TH6342 nor TH7127 in cell lysates altered SAMHD1 stability to pronase treatment | small concentration-dependent reduction in Tm1 | the allosteric activator was not able to fully remove the Tm1 transition | significantly increased hill coefficients | Ki (recombinant SAMHD1 [2]; B4NPP substrate, Mn2+, global fit, mixed inhibition model): 20.1 µM; Mode of inhibition (recombinant SAMHD1 [2]; B4NPP substrate, global fitting): mixed mode of inhibition; alpha (α) (recombinant SAMHD1 [2]; B4NPP substrate, global fit, mixed inhibition model): 0.36
Nc1nc2c(ncn2[C@H]2C[C@H](O)[C@@H](COP(O)(=S)OP(=O)(O)OP(=O)(O)O)O2)c(=O)[nH]1 (stereo partly drawn) [dGTPαS, reference compound] |  |  |  |  |  |  |  |  |  | Tm3 (recombinant SAMHD1 [8]; SAMHD1 melting temperature with dGTPαS up to 1 mM): ~70 °C
c1ccc(CCNc2nc(-c3cccs3)cn3ccnc23)nc1 [TH7528, N-(2-(pyridin-2-yl)ethyl)-6-(thiophen-2-yl)imidazo[1,2-a]pyrazin-8-amine] | retained their inhibitory activities | 2.6 | 2.8 | 4.5 | selectively inhibited SAMHD1 |  | small concentration-dependent reduction in Tm1 |  | significantly increased hill coefficients | 
Nc1ccccc1-c1cn2ccnc2c(NCCc2ccccn2)n1 [TH7126, 6-(2-aminophenyl)-N-(2-(pyridin-2-yl)ethyl)imidazo[1,2-a]pyrazin-8-amine] | minimal inhibition | > 100 | > 100 | > 100 |  |  | did not alter SAMHD1 thermal stability | did not disrupt SAMHD1 dimerization | did not alter the reaction kinetics | Inhibition of SAMHD1 (in words) (recombinant SAMHD1 [3]; dGTP, ara-CTP and Cl-F-ara-ATP substrates): Neg. control; also recorded: minimal inhibition
